Laboratory results as given in patent publication US5637725A, “Substituted aryl and cycloalkyl imidazolones; a new class of GABA brain receptor ligands” (Neurogen Corporation, priority 1995, dated 1997).
pKi: −log10 of the molar value.

Tests used:
GABA receptor = conditions: brain membranes; cited from earlier work
GABAa receptor = assay: [3H]-RO15-1788 (Flumazenil) binding assay for GABAa receptor activity, rat cortical tissue; conditions: 0.5 nM 3H-RO15-1788; rat cortical tissue homogenate; 30 min at 4° C.; nonspecific binding with 1.0 mM diazepam
Description: The pharmaceutical utility of compounds of this invention are indicated by the following assay for GABAa receptor activity.
Assays are carried out as described in Thomas and Tallman (J. Bio. Chem. 156: 9838-9842, J. Neurosci. 3: 433-440, 1983). Rat cortical tissue is dissected and homogenized in 25 volumes (w/v) of 0.05M Tris HCl buffer (pH 7.4 at 4° C.). The tissue homogenate is centrifuged in the cold (4°) at 20,000×g for 20'. The supernatant is decanted and the pellet is rehomogenized in the same volume of buffer and again centrifuged at 20,000×g. The supernatant is decanted and the pellet is frozen at -20° C. overnight. The pellet is then thawed and rehomogenized in 25 volume (original wt/vol) of buffer and the procedure is carried out twice. The pellet is finally resuspended in 50 volumes (w/vol of 0.05M Tris HCl buffer (pH 7.4 at […]).
Incubations contain […] of radioligand 0.5 nM (^3 H-RO15-1788 [^3 H-Flumazenil] specific activity 80 Ci/mmol), drug or blocker and buffer to a total volume of […]. Incubations are carried for 30 min at 4° C. then are rapidly filtered through GFB filters to separate free and bound ligand. Filters are washed twice with fresh 0.05M Tris HCl buffer (pH 7.4 at 4° C.) and counted in a liquid scintillation counter. […] diazepam is added to some tubes to determine nonspecific binding. Data are collected in triplicate determinations, averaged and % inhibition of total specific binding is calculated. Total Specific Binding=Total-Nonspecific. In some cases, the amounts of unlabeled drugs is varied and total displacement curves of binding are carried out. Data are converted to a form for the calculation of IC50 and Hill Coefficient (nH).

Compound | blockade of enhancement of benzodiazepine binding by GABA agonists (GABA receptor) | pKi (GABAa receptor)
CN1CCc2cc3c(cc2[C@@H]1[C@H]1OC(=O)c2c1ccc1c2OCO1)OCO3 [(-) bicuculline] | much less active | 
O=c1[nH]c2c(n1-c1nc3ccc(F)c(F)c3o1)CCCCC2 [Compound 1] |  | 8.52
COc1ccc2oc(-n3c4c([nH]c3=O)CCCC4)nc2c1 [Compound 6] |  | 7.09
O=c1[nH]c2cc(F)ccc2n1-c1nc2cccc(F)c2o1 [Compound 3, 3-(2-(7-fluorobenzoxazyl))-6-fluorobenzimidazol-2-(1H)-one] |  | 7.85
O=c1[nH]c2cc(F)ccc2n1-c1nc2ccc(F)cc2o1 [Compound 4, 3-(2-(6-fluorobenzoxazyl))-6-fluorobenzimidazol-2-(1H)-one] |  | 8.30
O=c1[nH]c2c(n1-c1nc3ccc(F)cc3o1)CCCCC2 [Compound 2] |  | 8.34
CN1CCc2cc3c(cc2[C@H]1[C@@H]1OC(=O)c2c1ccc1c2OCO1)OCO3 [(+) bicuculline] | blocked | 
O=c1[nH]c2c(n1-c1nc3ccc(F)c(F)c3o1)CCCC2 [Compound 5] |  | 7.68
